Results reported in patent US20260364186A1, “Chemical Conjugates, Compositions, and Methods of Preparation and Use Thereof” (Transfection Holdings Limited, priority 2022, published 2026).
Where “and” joins values, the source holds several entries; their conditions need not be identical. Identical values can stand only once.

Legend:
Type in all cases: cell-based, human
[1] = test system: NZM40 (NRAS Q16H) melanoma cells; test: FACS uptake of BODIPY FL conjugates, 200 nM, 5 min (Example 2)
Protocol: FIG. 2. Conjugate compounds coupled to BODIPY FL were tested for uptake using 200 nM each conjugate and 5 minute incubation with melanoma cell line NZM11 (BRAF V600E mutant metastatic melanoma), melanoma cell line NZM40 (NRAS Q16H mutant metastatic melanoma) and melanoma cell line NZM9 (BRAF and NRAS wildtype metastatic melanoma). Mean fluorescent intensities (MFI). 2,000 cells (NZM11), 1,000 cells (NZM40) and 500-1,000 cells (NZM9). Cells were sorted by FACS. Bars represent mean±SD. Results were from a single experiment done in triplicate.
NZM40 is an adherent cell line which was originally derived from a metastatic melanoma from a patient, in 2004. This human metastatic melanoma is identified with code CBA-1381 from Cell bank Australia. […] Ras is a superfamily of proteins implicated in cell growth, survival and differentiation. NRAS (neuroblastoma rat sarcoma) was the first oncogene recognized in melanoma and mutations in NRAS account for 20% of all melanomas. NRAS mutations primarily occur at position 61 and involve amino acid change from glutamine (Q) to arginine (R), lysine (K), leucine (L) or histidine (H). These mutations block NRAS into a GTP-bound state damaging its GTPase activity (FIG. 1). Patients are usually older (>55 years) with previous UV exposure. See Garcia-Alverez et al., 2021.
For screening, NZM11, NZM40 and NZM9 cells were suspended at […] dispensed into 96 well plates and left to settle for 48 hours. Then, 10 μL of 10 mM stock solutions in DMSO for the conjugates were diluted with HBSS to afford 400 nM solution. Next, 400 nM compounds and DMSO solutions were diluted 1:1 with MEMα media to afford 200 nM solutions. After 48 hours the media was removed from the 96 well plates and 200 μL of 200 nM conjugates solutions dispensed to each well (in triplicate) and incubated for 5 minutes at 37 °C. After 5 minutes, the media was removed and cells washed with PBS. Then, 100 μL of TrypLE trypsin (ThermoFisher Scientific) were added to each well and incubated for 5 minutes at 37 °C after which, 100 μL of MEMα media were added and samples were sorted through FACS biosort. The FACS results output were represented as the mean of the fluorescence intensities (in arbitrary units) measured for cells sorted in every sample.

[2] = test system: NZM11 (BRAF V600E) melanoma cells; test: Time course of uptake by FACS (Example 5); conditions: 200 nM
Protocol: FIG. 5A: Time course of uptake for 124, 125, 131, 132 conjugate compounds. Tests were performed using 200 nM each conjugate and 5, 30, or 60 minute incubation with melanoma cell line NZM11 (BRAF V600E mutant metastatic melanoma). Mean fluorescent intensities (MFI), n=300 mean±SD. The cells were sorted by FACS.
FIG. 5B: Time course of uptake for 124 and 3-azido BODIPY FL. Tests were performed using 200 nM each compound and 1 or 3 hour incubation with melanoma cell line NZM11 (BRAF V600E mutant metastatic melanoma). Mean fluorescent intensities (MFI). n=2000-3000 mean±SD. The cells were sorted by FACS.
Materials and methods: NZM11 cells were suspended at […] dispensed into 96 well plates and left to settle for 48 hours. 10 μL of 10 mM stock solutions in DMSO from the conjugates coupled to BODIPY were diluted with HBSS to afford 400 nM solution. Then, 400 nM compounds and DMSO solutions were diluted 1:1 with MEMα media to afford 200 nM solutions. After 48 hours the media was removed from the 96 well plates and 200 μL of 200 nM conjugates solutions dispensed to each well (in duplicate) and incubated for 5 minutes, 30 minutes and 60 minutes at 37 °C (for the first test) or 60 minutes and 3 hours (for the second test). After indicated incubation time, the media was removed and cells washed with PBS. 100 μL of TrypLE trypsin (ThermoFisher Scientific) were added to each well and incubated for 6.5 minutes at 37 °C after which, 100 μL of MEMα media were added and samples were sorted through FACS biosort. FACS results output represented the mean of the fluorescence intensities (in arbitrary units) measured for cells sorted in every sample. Uptake rate was calculated by the equation: Uptake rate=(MFI2−MFI1)/(T2−T1)
whereby: MFI=mean fluorescent intensities; T=time (at which time the sample was taken); Uptake rate units: fluorescence intensities units per minute.

[3] = test system: NZM11 (BRAF V600E mutant metastatic melanoma) cells; test: Sulforhodamine B (SRB) assay of viability / proliferation, auranofin conjugates (Example 8)
Protocol: FIG. 8: Effect of 136 and 137 (auranofin conjugates) on viability of NZM11 melanoma cells. Cells were incubated with 136 and 137 at 10 μM final concentration and kept at 37 °C for 48 hours. Pantothenic acid (PA), CJ-15,801, and biotin were tested at 200 μM final concentration. […] Two batches of auranofin were tested at 10 μM final concentration.
FIG. 9: The viability data from FIG. 8 was normalised to the treatment plate and DMSO control and plotted as a percentage of cell growth. Individual data points represent technical replicates. Curve indicates non-linear regression slope, which allows determination of IC50 values.
Materials and methods: NZM11 cells were cultured in MEMα media with an initial count of 1020 cells/μL. The cells were then diluted to get 25 cells per μL and 200 μL of this suspension (5000 cells per well), dispensed into 96 well plates and left to settle for 24 hours. 10 mM stock solutions of 136, 137, and auranofin were diluted with 1% FBS MEMα media to give 10 nM, 30 nM, 100 nM, 300 nM, 1 μM, 3 μM, 10 μM, 30 μM and 100 μM solutions. After 24 hours the media was removed from the 96 well plates. To individual wells 200 μL of each dilution were dispensed in triplicate for three groups (136, 137, and auranofin): 1% FBS MEMα media only (DMSO control), 10 nM, 30 nM, 100 nM, 300 nM, 1 μM, 3 μM, 10 μM, 30 μM and 100 μM. The cells were incubated at 37 °C, 5% 02 and 5% CO2 for 48 hours.
In order to test the potency of 136 and 137, the IC50 values were calculated for these auranofin conjugates. For analysis of the treatment plate (Tz) a SRB assay was utilised. For this assay, 50 μL of 50% (w/v) ice-cold trichloroacetic acid (TCA) was added to each well. To achieve this, 5 g of TCA was made up to 10 mL with milliQ H2O. This was cooled on ice. Incubation was carried out for 1 hour at 4 °C to fix cells. TCA and media were removed from cells. Five milliQ washes were carried out and the plate was left to air dry. Next, 50 μL of 0.4% SRB solution (prepared in 1% acetic acid) was added to each well and incubated for 10 minutes at room temperature. The SRB solution was removed and five milliQ washes were carried out. Then, 100 μL of 10 mM Tris solution was added to each well, and the dye was solubilised. Absorbance at 515 nm was read on plate reader. Data was normalized to Tz plate, as per NCI60 screening method (https://dtp.cancer.gov/discovery_development/nci-60/methodology.htm).

Jurkat cells = test: FACS uptake of BODIPY FL conjugates in Jurkat cells (Example 3); conditions: 200 nM
Protocol: FIG. 3B: Conjugate compounds coupled to BODIPY FL were tested for uptake using 200 nM each conjugate and 5 minute incubation with immortalized T lymphocyte cell line, Jurkat cells. Mean fluorescent intensities (MFI). 1,000 cells sorted by FACS. Bars represent mean±SD. Results represent a single experiment done in duplicate.
Materials and methods: Jurkat cells have been previously shown to be defective in the expression of two lipid phosphatases, PTEN (phosphatase and tensin homologue) and SHIP (SH2-domain-containing inositol polyphosphate 5′ phosphatase). The biological implications of SHIP deficiency in T cells remain under evaluation, but the loss of PTEN leads to activation of the phosphatidylinositol 3-kinase (PI3K)-signalling pathway. See Abraham and Weiss, 2004. This activation of PI3K protein is also on NZM40 melanoma cell line, and represents a key mutation for its sustained proliferation. See Silva et al., 2017. For these experiments, Jurkat cells were diluted on RPMI media (supplemented with 10% FBS+1% penicillin-streptomycin) to afford 400 cells/μL. 2 μL of 100 μM stock solutions in DMSO from 138 and pantothenic acid/pantothenic acid derivatives coupled to BODIPY were diluted with 998 μL of RPMI media (supplemented with 10% FBS+1% penicillin-streptomycin) to afford 200 nM solution. 100,000 cells were dispensed to Eppendorf tubes, centrifuged for 1.5 min at 5000 rcf and the supernatant was removed. The cells then were incubated with 500 μL of solutions at 200 nM for 4.5 min and 37 °C. After the incubation time, cells were centrifuged for 1.5 minutes at 5000 rcf. Supernatant was removed and cell pellet re-suspended in 200 μL fresh RPMI media, transferred to 96 well-plate and run on FACS machine, approximately 1,000 cells analysed.

[4] = test system: HT29 (colorectal cancer cell line); test: FACS uptake of BODIPY FL conjugates (Example 4); conditions: 200 nM, 5 min
Protocol: FIG. 4A: Conjugate compounds coupled to BODIPY FL were tested for uptake using 200 nM each conjugate and 5 minute incubation with colorectal cancer cell line HT29. Mean fluorescent intensities (MFI). 1,000 cells were sorted by FACS.
Materials and methods: The HT-29 line was originally isolated from a primary tumour in 1964 from a person. This cell line is positive for expression of N-ras and overexpression of p53 antigen. The human colon adenocarcinoma cell line HT29, is not only used to study the biology of human colon cancers, but it is receiving special interest in studies focused on food digestion and bioavailability due to the ability to express characteristics of mature intestinal cells. The application of this cell line to transport studies of drugs and food compounds is illustrated, especially when the effect of the mucus layer is considered or used as co-culture in combination with Caco-2 cells. These cells have shown a high rate of glucose consumption and therefore, they require high glucose concentration in the medium. Verhoeck et al., 2015.
For these experiments, HT-29 or MEF cells were diluted on αMEM media (supplemented with 10% FBS+1% penicillin-streptomycin) to give a 250 cells/μL suspension of which 200 μL were aliquoted into each well of a 96 well plate followed by incubation for 24 hours. Next, 2 μL of 100 μM stock solutions in DMSO from the conjugates coupled to BODIPY were diluted with 998 μL of αMEM media to give a 200 nM solution. After 24 hour incubation, media was removed and 200 μL of 138 and pantothenic acid/pantothenic acid derivatives coupled to BODIPY 200 nM solutions were added and cells were incubated for 5 minutes at 37 °C. After 5 minutes, the compounds and DMSO solutions were removed and cells were washed with PBS. Then, 100 μL of TrypLE trypsin were added to each well and incubated for 5 minutes at 37 °C. After this time, 100 μL of DMEM media were added to the wells and samples were sorted through FACS biosort. The studies were completed in duplicated wells.

CC1=CC(C)=[N+]2C1=Cc1ccc(CCCn3cc(CCNC(=O)/C=C\NC(=O)[C@@H](O)C(C)(C)CO)nn3)n1[B-]2(F)F [Compound 130, (Z)—N-((((3-[4,4-Difluoro-5,7-dimethyl-4-bora-3a,4a-diaza-s-indacene-3-yl]propyl)-1H-1,2,3-triazol-4-yl)ethylamino)-3-oxoprop-1-enyl)-2,4-dihydroxy-3,3-dimethylbutanamide]
uptake (fluorescence intensities) [1]: showed selectivity

CC1=CC(C)=[N+]2C1=Cc1ccc(CCCN=[N+]=[N-])n1[B-]2(F)F [3-azido BODIPY FL, 3-Azido[4,4-difluoro-5,7-dimethyl-4-bora-3a,4a-diaza-s-indacene-3-yl]propane, reference compound]
times lower intensities than 124 ([2]; 1 hour): 6 times
times lower intensities than 124 ([2]; 3 hours): 6 times
uptake / intensities, in words ([2]; NZM11, time course): low uptake rate

(R,E)-((4-(3-(2,4-dihydroxy-3,3-dimethylbutanamido)acrylamido)phenyl)thio)(triethyl-phosphaneyl) Gold (I) [Compound 137]
reduction on viability, as compared to auranofin itself ([3]; 10 μM, 48 hours): more than 95%
effect of CJ-15,801/138 on activity ([3]; 138 20 times more concentrated (200 μM)): not affected
IC50 relative to auranofin ([3]; NZM11, 48 hours): five times higher than auranofin
IC50 ([3]; NZM11, 48 hours, SRB assay): 2.94 µM and ~2.8 µM
effect of biotin and pantothenic acid on activity ([3]; vitamins 20 times more concentrated (200 μM)): not affected

CC1=CC(C)=[N+]2C1=Cc1ccc(CCCn3cc(CCNC(=O)/C=C\NC(=O)[C@@H]4OC(C)(C)OCC4(C)C)nn3)n1[B-]2(F)F [Compound 129, (Z)—N-((((3-[4,4-Difluoro-5,7-dimethyl-4-bora-3a,4a-diaza-s-indacene-3-yl]propyl)-1H-1,2,3-triazol-4-yl)ethylamino)-3-oxoprop-1-enyl)-2,2,5,5-tetramethyl-1,3-dioxane-4-carboxamide]
uptake (fluorescence intensities) [1]: showed selectivity
uptake / targeting (Jurkat cells): showed targeting
uptake (fluorescent intensities) [4]: higher uptakes than their diol counterparts
